Measurements reported in the NIST ThermoML archive (doi:10.1021/acs.jced.8b01196).
Numbers after ± are expanded uncertainties.

Assays:
[1] = Liquid; for mass density: 101.33 kPa, Vibrating tube method; for vapor or sublimation pressure: Ebulliometric method (Recirculating still)
[2] = refractive index (Na D-line) (dimensionless); details: 101.33 kPa, Liquid, Standard Abbe refractometry
[3] = Boiling temperature at pressure P; details: Liquid, Ebulliometric method (Recirculating still)

CCC(=O)C(C)=O [2,3-pentanedione]
Details	Boiling temperature at pressure P [°C]	mass density [kg/m3]	refractive index	vapor or sublimation pressure [kPa]
[1], 292.15 K	–	982 ± 2	–	–
[1], 382.52 K	–	–	–	100 ± 4
[1], 395.74 K	–	–	–	150 ± 4
[1], 405.62 K	–	–	–	200 ± 5
[2], 292.15 K	–	–	1.412 ± 0.001	–
[3], 15.33 kPa	58.52 ± 1.1	–	–	–
[3], 30.35 kPa	74.90 ± 1.1	–	–	–
[3], 45.32 kPa	85.6 ± 1.1	–	–	–
[3], 50.34 kPa	88.2 ± 1	–	–	–
[3], 60.35 kPa	93.66 ± 1	–	–	–
[3], 65.35 kPa	96.10 ± 1	–	–	–
[3], 75.35 kPa	100.40 ± 1	–	–	–
[3], 90.29 kPa	106.11 ± 1	–	–	–
[3], 100.75 kPa	109.37 ± 1	–	–	–
[3], 105.45 kPa	111.8 ± 1	–	–	–
[3], 120.51 kPa	115.89 ± 1	–	–	–
[3], 135.32 kPa	118.22 ± 1	–	–	–
[3], 150.5 kPa	122.59 ± 1	–	–	–
[3], 165.5 kPa	125.8 ± 1	–	–	–
[3], 180.57 kPa	128.56 ± 1	–	–	–
[3], 195.59 kPa	129.97 ± 1	–	–	–
[3], 200.68 kPa	132.47 ± 1	–	–	–

CC=O [ethanal]
Details	Boiling temperature at pressure P [°C]	refractive index	vapor or sublimation pressure [kPa]
[1], 293.52 K	–	–	100 ± 5
[1], 304.31 K	–	–	150 ± 5
[1], 312.98 K	–	–	200 ± 6
[2], 293.15 K	–	1.337 ± 0.001	–
[3], 100.68 kPa	20.37 ± 1	–	–
[3], 105.38 kPa	21.58 ± 1	–	–
[3], 115.48 kPa	23.93 ± 1	–	–
[3], 135.54 kPa	28.19 ± 1	–	–
[3], 150.37 kPa	31.16 ± 1	–	–
[3], 165.44 kPa	33.89 ± 1	–	–
[3], 180.92 kPa	36.44 ± 1	–	–
[3], 195.74 kPa	39 ± 1	–	–
[3], 200.79 kPa	39.83 ± 1	–	–
[3], 210.95 kPa	41.10 ± 1	–	–
[3], 225.32 kPa	43.23 ± 1	–	–
[3], 240.4 kPa	45.2 ± 1	–	–

CC(C)=O [acetone]
Details	Boiling temperature at pressure P [°C]	mass density [kg/m3]	refractive index	vapor or sublimation pressure [kPa]
[1], 298.15 K	–	785 ± 2	–	–
[1], 328.89 K	–	–	–	100 ± 4
[1], 341.5 K	–	–	–	150 ± 5
[1], 350.57 K	–	–	–	200 ± 6
[2], 293.15 K	–	–	1.359 ± 0.001	–
[3], 40.32 kPa	31.47 ± 1	–	–	–
[3], 50.34 kPa	37.0 ± 1	–	–	–
[3], 60.36 kPa	41.64 ± 1	–	–	–
[3], 70.3 kPa	45.74 ± 1	–	–	–
[3], 80.32 kPa	49.40 ± 1	–	–	–
[3], 90.34 kPa	52.70 ± 1	–	–	–
[3], 100.38 kPa	55.74 ± 1	–	–	–
[3], 120.34 kPa	61.20 ± 1	–	–	–
[3], 140.53 kPa	65.91 ± 1	–	–	–
[3], 150.68 kPa	68.4 ± 1	–	–	–
[3], 160.33 kPa	70.12 ± 1	–	–	–
[3], 180.53 kPa	73.92 ± 1	–	–	–
[3], 200.55 kPa	77.42 ± 1	–	–	–
[3], 220.29 kPa	80.67 ± 1	–	–	–
